Measurements taken from patent publication US4200573A, “Derivatives of 3-carboxyrifamycin S and SV and process for their preparation” (Alfa Farmaceutici, S.p.A., priority 1977, dated 1980).
≈ marks a conversion by molar mass, not a printed value. Entries after “also recorded” stand apart in the source; their conditions may differ.

Tests used:
[1] = chemical stability (observation); type: physicochemical
Klebsiella Ottaviani = test: Minimal inhibiting concentration (MIC), in vitro antibacterial activity, Klebsiella Ottaviani; type: cell-based; conditions: read-out: Minimal inhibiting concentration (MIC)
Source text: (§1) The derivatives of 3-carboxyrifamycins S and SV according to the present invention have an antibacterial activity in vitro as shown by the data in the examples where are reported the minimal inhibiting concentrations (MIC) expressed in mcg/ml against different patogenic microorganisms.

St. Aureus 209 P = test: Minimal inhibiting concentration (MIC), in vitro antibacterial activity, St. Aureus 209 P; type: cell-based; conditions: Staphylococcus aureus
Source text: as §1

Salmonella p typhi B = test: Minimal inhibiting concentration (MIC), in vitro antibacterial activity, Salmonella p typhi B; type: cell-based; conditions: read-out: Minimal inhibiting concentration (MIC)
Source text: as §1

E. Coli ML/35 = test: Minimal inhibiting concentration (MIC), in vitro antibacterial activity, E. Coli ML/35; type: cell-based; conditions: Escherichia coli
Source text: as §1

Compound | stability [1] | MIC (Klebsiella Ottaviani) [µg/mL] | MIC (St. Aureus 209 P) [µg/mL] | MIC (Salmonella p typhi B) [µg/mL] | MIC (E. Coli ML/35) [µg/mL]
3-carboxyrifamycin | instable product and gives very easily rise to reaction of decarboxylation; also recorded: unstable product which easily decomposes | – | – | – | –
COC(=O)C1=C2NC(=O)/C(C)=C\C=C\[C@H](C)[C@H](O)[C@@H](C)[C@@H](O)[C@@H](C)[C@H](OC(C)=O)[C@H](C)[C@@H](OC)/C=C/O[C@@]3(C)Oc4c(C)c(O)c(c(c4C3=O)C1=O)C2=O [Example 6, 3-(carbomethoxy)rifamycin S] | – | 25 to 50 (≈ 33.2 to 66.3 µM) | 0.05 to 0.1 (≈ 0.0663 to 0.133 µM) | > 50 | 25 to 50 (≈ 33.2 to 66.3 µM)
CO[C@H]1/C=C/O[C@@]2(C)Oc3c(C)c(O)c4c(c3C2=O)C(=O)C(C(=O)N2CCN(C)CC2)=C(NC(=O)/C(C)=C\C=C\[C@H](C)[C@H](O)[C@@H](C)[C@@H](O)[C@@H](C)[C@H](OC(C)=O)[C@@H]1C)C4=O [Example 8, 3-(N-methyl N'-piperazinylcarbonyl)rifamycin S] | – | > 50 | 0.1 to 0.25 (≈ 0.122 to 0.304 µM) | > 50 | > 50
CO[C@H]1/C=C/O[C@@]2(C)Oc3c(C)c(O)c4c(c3C2=O)C(=O)C(C(=O)NN(C)C)=C(NC(=O)/C(C)=C\C=C\[C@H](C)[C@H](O)[C@@H](C)[C@@H](O)[C@@H](C)[C@H](OC(C)=O)[C@@H]1C)C4=O [Example 10, 3-(NN-dimethyl N-hydrazinocarbonyl)rifamycin S] | – | > 50 | – | > 50 | > 50
CO[C@H]1/C=C/O[C@@]2(C)Oc3c(C)c(O)c4c(c3C2=O)C(=O)C(C(=O)OCC(O)CO)=C(NC(=O)/C(C)=C\C=C\[C@H](C)[C@H](O)[C@@H](C)[C@@H](O)[C@@H](C)[C@H](OC(C)=O)[C@@H]1C)C4=O (some centres unmarked) [Example 12, 3-(1 glyceroxycarbonyl)rifamycin S] | – | > 100 | ~0.5 (≈ 0.614 µM) | > 100 | > 100
CO[C@H]1/C=C/O[C@@]2(C)Oc3c(C)c(O)c4c(c3C2=O)C(=O)C(C(=O)N(C)C)=C(NC(=O)/C(C)=C\C=C\[C@H](C)[C@H](O)[C@@H](C)[C@@H](O)[C@@H](C)[C@H](OC(C)=O)[C@@H]1C)C4=O [Example 13, 3-(N,N dimethylaminocarbonyl)rifamycin S] | – | > 50 | – | > 50 | > 50
CO[C@H]1/C=C/O[C@@]2(C)Oc3c(C)c(O)c4c(c3C2=O)C(=O)C(C(=O)N(C)N2CCCCC2)=C(NC(=O)/C(C)=C\C=C\[C@H](C)[C@H](O)[C@@H](C)[C@@H](O)[C@@H](C)[C@H](OC(C)=O)[C@@H]1C)C4=O [Example 14, 3-((N-(N'-piperidinyl)N-methyl)aminocarbonyl)rifamycin S] | – | > 50 | ~0.03 (≈ 0.0359 µM) | > 50 | > 50
